From patent US12459930B2, “Compounds for the inhibition of unregulated cell growth” (GODAVARI BIOREFINERIES LIMITED, priority 2018, dated 2025)
pIC50: −log10 of the molar value.

Tests used:
[1] = system: PC3 spheres (cancer stem cells); experiment: In vitro sphere-forming assay (cancer stem cells), PC3 in Prostosphere media; conditions: for 3D sphere count of PC3 in Prostosphere media: 2000 cells/well, n = 6 ± S.D; for viability at 0.0025 µM: read-out: % Viability of spheres (PC3), 0.0025 uM; for viability at 0.0025 µM / viability at 0.025 µM / viability at 0.25 µM / viability at 2.5 µM / viability at 25 µM: GCD = 100% viability; for viability at 0.025 µM: read-out: % Viability of spheres (PC3), 0.025 uM; for viability at 0.25 µM: read-out: % Viability of spheres (PC3), 0.25 uM; for viability at 2.5 µM: read-out: % Viability of spheres (PC3), 2.5 uM; for viability at 25 µM: read-out: % Viability of spheres (PC3), 25 uM
[2] = system: DU145 prostate cancer cell line; experiment: In vitro antiproliferative assay (MTT assay), DU145; assay type: cell-based; conditions: Homo sapiens, DU-145, 48 h, 48 hrs drug incubation, read-out: IC50 in micromolar, DU145 (MTT assay)
Method: (§1) MTT assay is a simple and sensitive assay where, metabolic reducing activity of the cells is measured. The increase of this activity in time is taken as a parameter of cell growth. If treatment with a drug impairs this increase, the action is a consequence of growth inhibition, cell killing or both. […] All cell lines were cultured in a 37° C. incubator with a 5% CO2 environment. Compounds were dissolved in DMSO with a concentration of 0.1M (stock solution). Cells were seeded into 96-well plates at suitable plating efficiency.
(§2) Following plating efficiencies were standardized for MTT assay:
(§3) In the MTT procedure, the cells were plated in 96 well plates as per predetermined plating efficiency (Table1). The plates were then incubated for 24 hrs in 5% CO2 atmosphere at 37° C. Appropriate concentrations of the drugs were then added to the plate and further incubation was carried out for 48 hrs (in 5% CO2 atmosphere at 37° C.). The assay plate was then centrifuged twice at 3000 rpm for 3 mins and supernatant was then discarded. 100 ul of MTT solution (0.5 mg/ml) was then added to each well of the plate and it was further incubated for 4 hrs (in 5% CO2 atmosphere at 37° C.) Following 4 hr incubation, the plate was then centrifuged twice, and supernatant was aspirated off very carefully. 200 ul of DMSO was then added to each well to solubilize. MTT crystals and mixed well by shaking the plate. XY graph of log percent viability was then plotted against log drug concentration.

[3] = system: MDAMB231 breast cancer cell line; experiment: In vitro antiproliferative assay (MTT assay), MDAMB231; assay type: cell-based; conditions: Homo sapiens, MDA-MB-231, 48 h, 48 hrs drug incubation, read-out: IC50 in micromolar, MDAMB231 (MTT assay)
Method: as §1, §2, §3

[4] = system: PC3 prostate cancer cell line; experiment: In vitro antiproliferative assay (MTT assay), PC3; assay type: cell-based; conditions: 48 h, 48 hrs drug incubation, read-out: IC50 in micromolar, PC3 (MTT assay)
Method: as §1, §2, §3

[5] = system: MDAMB231 spheres (cancer stem cells); experiment: In vitro sphere-forming assay (cancer stem cells), MDAMB231 in Mammosphere media; conditions: for 3D sphere count of MDAMB231 in Mammosphere media: 2000 cells/well, n = 6 ± S.D; for viability at 0.0025 µM / viability at 0.025 µM / viability at 0.25 µM / viability at 2.5 µM / viability at 25 µM: Homo sapiens, MDA-MB-231, read-out: % Viability of spheres (MDAMB231)
Method: In Vitro Sphere-forming Assay: Sphere assay measures the ability of cancer stem cells (CSCs) to form spheres in specially designed serum-free medium.
Mammosphere Media Preparation (For 100 mL): 1 g methyl cellulose autoclaved with magnetic stirrer, 100 ml plain media (MEBM) was added and dissolved under magnetic stirring. After complete dissolution FGF—80 μL, EGF—40 μL, Penstrep—1 mL, Heparin—400 μL was added.
Procedure—The cells were trypsinised and made into single-cell suspension by passing through cell strainers (100 μl and 40 μl, respectively), The cells were diluted at a concentration of 2000 cells/100 μL and suspended in either Mammosphere (for breast cell lines) or Prostosphere (for prostate cell lines). 100 μL of this suspension was added into each well of 96-well suspension plates and incubated at 37 C, 50 CO2 for 24 hrs. Appropriate concentrations of the drugs (2 L) were added into respective wells with 100 μL of stem cell culture medium. Plates were incubated at 37° C., 50% CO2 for 72 hrs. After incubation, 2.5 μL of the respective drug concentration and 50 μL of stem cell culture medium were added into each well and the plates were further incubated at 37° C., 500 CO2 for 72 hrs. 3 μL of the respective drug concentration was added with 50 μL of stem cell culture medium again after incubation and plates were reincubated for 72 hrs at 37° C., 500 CO2. Number of primary spheres formed for each concentration were counted. The spheres were converted to 0 viability of spheres compared to untreated (Growth Control with DMSO, GCD).

[6] = system: PC3 prostate cancer cell line; experiment: Soft agar colony-formation assay, PC3; assay type: cell-based; conditions: 168 h, 1 week, Alamar Blue, read-out: IC50 in micromolar, PC3 (Soft Agar Assay)
Method: (§4) The Soft Agar Colony-formation Assay is an anchorage-independent growth assay in soft agar, which is one of the most stringent assays for detecting malignant transformation of cells. For this assay, malignant cells are cultured with appropriate controls in soft agar medium for 1-2 weeks. Following this incubation period, formed colonies can either be analyzed morphologically using cell stain and quantifying the number of colonies formed.
(§5) Briefly, for Soft Agar Assay a mixture of 50 ul of 2× medium (taken appropriately as per cell line) and 50 ul of 1.2% Bacto Agar were plated on to each well of 96 well micro titer assay plate. 10 ul of cells (of specific plating efficiency pre standardized for respective cell line) were mixed with 20 ul of 2× medium and 30 ul of 0.8% of Bacto Agar and 1.6 ul of drug (of appropriate concentration) in a vial and transferred to the solidified pre layers of the assay plates. The cells were then allowed to grow and form colonies at 37° C. and 5% C02 for 1 week. An intermittent feeding with 50 ul of appropriate 2× medium was performed after 3 days of experimental set up. 16 ul of Alamar Blue (1.5 mg/ml) was then added to all the wells to quantify the developed colonies. The plates were incubated for 24 hrs at 37° C. Absorbance was then measured at 630 nm. XY graph of log Percent viability was then plotted against log drug concentration.
(§6) Following plating efficiencies were standardized for Soft Agar Assay: […]

[7] = system: MDAMB231 breast cancer cell line; experiment: Soft agar colony-formation assay, MDAMB231; assay type: cell-based; conditions: Homo sapiens, MDA-MB-231, 168 h, 1 week, Alamar Blue, read-out: IC50 in micromolar, MDAMB231 (Soft Agar Assay)
Method: as §4, §5, §6

SMILES | 3D sphere count of PC3 in Prostosphere media ([1]; 0.0025 uM) | 3D sphere count of PC3 in Prostosphere media ([1]; 0.025 uM) | 3D sphere count of PC3 in Prostosphere media ([1]; 0.25 uM) | 3D sphere count of PC3 in Prostosphere media ([1]; 2.5 uM) | 3D sphere count of PC3 in Prostosphere media ([1]; 25 uM) | viability at 0.0025 µM [1] | viability at 0.025 µM [1] | viability at 0.25 µM [1] | viability at 2.5 µM [1] | viability at 25 µM [1] | pIC50 [2] | pIC50 [3] | pIC50 [4] | 3D sphere count of MDAMB231 in Mammosphere media ([5]; 0.0025 uM) | 3D sphere count of MDAMB231 in Mammosphere media ([5]; 0.025 uM) | 3D sphere count of MDAMB231 in Mammosphere media ([5]; 0.25 uM) | 3D sphere count of MDAMB231 in Mammosphere media ([5]; 2.5 uM) | 3D sphere count of MDAMB231 in Mammosphere media ([5]; 25 uM) | viability at 0.0025 µM [5] | viability at 0.025 µM [5] | also measured
O=C1OCc2c1c(-c1ccc3c(c1)OCO3)c1cc3c(cc1c2OCCN1CCOCC1)OCO3 [Formula XI, 4-(2-morpholinoethoxy)-9-(benzo[d][1,3]dioxol-5-yl)-6,7-methylenedioxynaphtho[2,3-c]furan-1(3H)-one] | 51(±3) | 43(±3) | 32(±4) | 21(±3) | 0(±0) | 62% | 52% | 39% | 25% | 0% | 5.09 | 5.49 | 4.90 | 51(±3) | 41(±3) | 31(±3) | 20(±3) | 0(±0) | 64% | 52% | viability at 0.25 µM [5]: 39%; viability at 2.5 µM [5]: 25%; viability at 25 µM [5]: 0%; pIC50 [6]: 5.29; pIC50 [7]: 5.57
COc1cccc(-c2ccc(OCCN3CCOCC3)c3ccccc23)c1 [Formula XII, 4-(2-(1-(3-methoxyphenyl)naphthalen-4-yloxy)ethyl)morpholine] | 50(±3) | 42(±3) | 36(±3) | 28(±3) | 9(±3) | 61% | 51% | 44% | 34% | 11% | 5.59 | 5.57 | 5.40 | 47(±4) | 41(±3) | 34(±3) | 30(±3) | 9(±3) | 59% | 52% | viability at 0.25 µM [5]: 43%; viability at 2.5 µM [5]: 38%; viability at 25 µM [5]: 11%; pIC50 [6]: 5.39; pIC50 [7]: 5.48
O=C1OCc2c1c(-c1ccc3c(c1)OCO3)c1cc3c(cc1c2OCCCCN1CCOCC1)OCO3 [Formula XIII, 4-(4-morpholinobutoxy)-9-(benzo[d][1,3]dioxol-5-yl)-6,7-methylenedioxynaphtho[2,3-c]furan-1(3H)-one] | 49(±3) | 44(±4) | 35(±3) | 32(±3) | 27(±3) | 62% | 55% | 44% | 40% | 34% | 5.05 | 5.14 | 5.05 | 49(±3) | 40(±3) | 36(±2) | 30(±4) | 21(±3) | 62% | 50% | viability at 0.25 µM [5]: 45%; viability at 2.5 µM [5]: 38%; viability at 25 µM [5]: 26%; pIC50 [6]: 5.42; pIC50 [7]: 5.52
c1ccc2c(-c3ccc4c(c3)OCO4)ccc(OCCCCNC3CCCCC3)c2c1 [Formula XIV, N-(4-(1-(benzo[d][1,3]dioxol-5-yl)naphthalen-4-yloxy)butyl)cyclohexan amine] | 56(±3) | 44(±5) | 39(±5) | 24(±3) | 13(±3) | 64% | 51% | 45% | 28% | 15% | 6.27 | 6.51 | 6.46 | 47(±3) | 43(±3) | 21(±7) | 21(±3) | 7(±3) | 57% | 52% | viability at 0.25 µM [5]: 26%; viability at 2.5 µM [5]: 26%; viability at 25 µM [5]: 9%; pIC50 [6]: 6.40; pIC50 [7]: 5.55
CN1CCN(CCCCOc2ccc(-c3ccc4c(c3)OCO4)c3c2CCCC3)CC1 [Formula XIX, 1-(4-(5-(benzo[d][1,3]dioxol-5-yl)-1,2,3,4-tetrahydronaphthalen-8-yloxy)butyl)-4-methylpiperazine] | 51(±3) | 40(±3) | 35(±3) | 25(±3) | 13(±2) | 62% | 48% | 42% | 30% | 15% | 5.69 | 5.67 | 5.43 | 48(±4) | 40(±4) | 34(±3) | 23(±5) | 13(±2) | 61% | 50% | viability at 0.25 µM [5]: 43%; viability at 2.5 µM [5]: 29%; viability at 25 µM [5]: 16%; pIC50 [6]: 5.29; pIC50 [7]: 5.47
c1cc2c(cc1-c1ccc(OCCCCCCNC3CCCCC3)c3c1CCCC3)OCO2 [Formula XVIII, N-(6-(5-(benzo[d][1,3]dioxol-5-yl)-1,2,3,4-tetrahydronaphthalen-8-yloxy)hexyl) cyclohexanamine] | 50(±4) | 43(±5) | 39(±3) | 27(±4) | 19(±3) | 63% | 54% | 49% | 34% | 24% | 6.46 | 6.40 | 6.49 | 54(±3) | 49(±4) | 39(±2) | 28(±3) | 19(±1) | 65% | 58% | viability at 0.25 µM [5]: 45%; viability at 2.5 µM [5]: 34%; viability at 25 µM [5]: 24%; pIC50 [6]: 5.58; pIC50 [7]: 5.38
